Measured values: ChEMBL document CHEMBL5465560, “Selectivity Literature for EUbOPEN Chemogenomic Library” (2024)

Experiments:
[1] = target: Protein kinase C theta type (Homo sapiens, UniProt Q04759); assay: Selectivity interaction (Kinase screening (Upstate/Millipore)) EUB0000604a PRKCQ
[2] = target: Proto-oncogene tyrosine-protein kinase receptor Ret (Homo sapiens, UniProt P07949); assay: Selectivity interaction (Kinase screening (Nanosyn)) EUB0000604a RET
[3] = target: Cyclin-dependent kinase 17 (Homo sapiens) (UniProt Q00537); assay: Selectivity interaction (ActivX KiNativ screen (kinase selectivity in THP-1 cell lysates)) EUB0000639a CDK17; format: subcellular; details: lysate
[4] = target: Ribosomal protein S6 kinase alpha-3 (Homo sapiens, UniProt P51812); assay: Selectivity interaction (ActivX KiNativ screen (kinase selectivity in THP-1 cell lysates)) EUB0000639a RPS6KA3; format: subcellular; details: lysate, at 0.04 µM
[5] = target: Histone-lysine N-methyltransferase ASH1L (Homo sapiens) (UniProt Q9NR48); assay: Selectivity interaction (Bromodomain panel (DSF asssay)) EUB0000270b ASH1L
[6] = target: Myosin light chain kinase, smooth muscle (Homo sapiens, UniProt Q15746); assay: Selectivity interaction (Kinase panel (literature)) EUB0001199aCl MYLK; details: at 1 µM
[7] = target: Dual specificity mitogen-activated protein kinase kinase 1 (Homo sapiens, UniProt Q02750); assay: (§1) Selectivity interaction (LanthaScreen Eu Kinase Binding Assay) EUB0001632a MAP2K1; details: at 10 µM
[8] = test system: Dual specificity mitogen-activated protein kinase kinase 1 (Homo sapiens), Q02750 [S218D,S222D]; assay: as §1; details: at 10 µM
[9] = target: Serine/threonine-protein kinase 16 (Homo sapiens, UniProt O75716); assay: Selectivity interaction (LanthaScreen Eu Kinase Binding Assay) EUB0001632a STK16; details: at 10 µM
[10] = target: Serine/threonine-protein kinase PLK3 (Homo sapiens, UniProt Q9H4B4); assay: Selectivity interaction (KinomeScan (DiscoverX)) EUB0000695a PLK3; details: at 100 nM
[11] = target: T1, Mitogen-activated protein kinase kinase kinase 2 (Homo sapiens) (UniProt Q9Y2U5); assay: Selectivity interaction (KinomeScan (DiscoverX)) EUB0000595a MAP3K2; details: at 10 µM
T1 sequence (whole entry): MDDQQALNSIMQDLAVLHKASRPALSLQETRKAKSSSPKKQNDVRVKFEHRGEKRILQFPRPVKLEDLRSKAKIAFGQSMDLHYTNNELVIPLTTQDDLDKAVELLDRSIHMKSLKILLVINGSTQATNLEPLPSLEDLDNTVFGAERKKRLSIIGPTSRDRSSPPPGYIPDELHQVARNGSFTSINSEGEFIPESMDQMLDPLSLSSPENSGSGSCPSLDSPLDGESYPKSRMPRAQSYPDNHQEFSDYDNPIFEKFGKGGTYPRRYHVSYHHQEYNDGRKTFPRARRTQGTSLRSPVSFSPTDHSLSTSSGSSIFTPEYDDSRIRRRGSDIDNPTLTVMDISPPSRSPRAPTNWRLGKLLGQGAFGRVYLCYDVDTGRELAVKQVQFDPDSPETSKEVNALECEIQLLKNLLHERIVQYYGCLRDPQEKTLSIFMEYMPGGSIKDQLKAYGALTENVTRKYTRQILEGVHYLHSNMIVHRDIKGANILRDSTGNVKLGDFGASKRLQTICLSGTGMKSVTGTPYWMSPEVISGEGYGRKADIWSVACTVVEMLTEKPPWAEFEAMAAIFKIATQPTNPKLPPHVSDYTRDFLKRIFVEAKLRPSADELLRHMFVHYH

[12] = target: Phosphatidylinositol 4,5-bisphosphate 3-kinase catalytic subunit alpha isoform (Homo sapiens) (UniProt P42336); details: at 10 µM
[13] = target: Receptor tyrosine-protein kinase erbB-3 (Homo sapiens) (UniProt P21860); assay: Selectivity interaction (KinomeScan (DiscoverX)) EUB0001079a ERBB3; details: at 1 µM
[14] = target: 5-hydroxytryptamine receptor 2A (Homo sapiens, UniProt P28223); assay: Selectivity interaction (GPCR panel (PDSP screen)) EUB0001079a HTR2A; details: at 10 µM
[15] = target: SRSF protein kinase 1 (Homo sapiens, UniProt Q96SB4); assay: Selectivity interaction (Upstate Kinase Profiler service (Millipore)) EUB0000056c SRPK1; details: at 1 µM
[16] = target: Serine/threonine-protein kinase Nek7 (Homo sapiens) (UniProt Q8TDX7); assay: Selectivity interaction (KinomeScan (DiscoverX)) EUB0000655a NEK7; details: at 10 µM
[17] = target: T2, Homeodomain-interacting protein kinase 3 (Homo sapiens, UniProt Q9H422); assay: Selectivity interaction (KinomeScan (DiscoverX)) EUB0000618a HIPK3; details: at 10 µM
[18] = target: Serine/threonine-protein kinase PRP4 homolog (Homo sapiens) (UniProt Q13523); assay: Selectivity interaction (KinomeScan (DiscoverX)) EUB0000618a PRPF4; details: at 10 µM
[19] = target: Dual specificity tyrosine-phosphorylation-regulated kinase 1B (Homo sapiens, UniProt Q9Y463); assay: Selectivity interaction (SelectScreen profiling (Invitrogen)) EUB0000607a DYRK1B; details: at 2 µM
[20] = target: T3, Serine/threonine-protein kinase Sgk2 (Homo sapiens) (UniProt Q9HBY8); assay: Selectivity interaction (SelectScreen profiling (Invitrogen)) EUB0000607a SGK2; details: at 2 µM
T3 sequence (whole entry): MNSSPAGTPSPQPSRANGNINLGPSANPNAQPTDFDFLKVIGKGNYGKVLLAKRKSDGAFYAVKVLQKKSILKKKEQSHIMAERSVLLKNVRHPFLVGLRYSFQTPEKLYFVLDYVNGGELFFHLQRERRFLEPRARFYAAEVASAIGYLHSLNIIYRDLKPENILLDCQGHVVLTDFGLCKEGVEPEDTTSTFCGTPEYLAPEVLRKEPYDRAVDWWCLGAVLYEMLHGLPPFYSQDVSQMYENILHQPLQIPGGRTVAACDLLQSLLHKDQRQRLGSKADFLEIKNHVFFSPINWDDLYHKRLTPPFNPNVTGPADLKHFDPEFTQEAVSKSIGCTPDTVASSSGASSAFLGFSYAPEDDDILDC

[21] = target: N-lysine methyltransferase SMYD2 (Homo sapiens) (UniProt Q9NRG4); assay: Selectivity interaction (Methyltransferase screen (Scintillation proximity assays)) EUB0000255b SMYD2
[22] = target: T2, Homeodomain-interacting protein kinase 3; assay: Selectivity interaction (KinomeScan (DiscoverX)) EUB0000666a HIPK3; details: at 10 µM

Cyclin-dependent kinase 17 (Homo sapiens), sequence (Q00537 whole entry, looked up): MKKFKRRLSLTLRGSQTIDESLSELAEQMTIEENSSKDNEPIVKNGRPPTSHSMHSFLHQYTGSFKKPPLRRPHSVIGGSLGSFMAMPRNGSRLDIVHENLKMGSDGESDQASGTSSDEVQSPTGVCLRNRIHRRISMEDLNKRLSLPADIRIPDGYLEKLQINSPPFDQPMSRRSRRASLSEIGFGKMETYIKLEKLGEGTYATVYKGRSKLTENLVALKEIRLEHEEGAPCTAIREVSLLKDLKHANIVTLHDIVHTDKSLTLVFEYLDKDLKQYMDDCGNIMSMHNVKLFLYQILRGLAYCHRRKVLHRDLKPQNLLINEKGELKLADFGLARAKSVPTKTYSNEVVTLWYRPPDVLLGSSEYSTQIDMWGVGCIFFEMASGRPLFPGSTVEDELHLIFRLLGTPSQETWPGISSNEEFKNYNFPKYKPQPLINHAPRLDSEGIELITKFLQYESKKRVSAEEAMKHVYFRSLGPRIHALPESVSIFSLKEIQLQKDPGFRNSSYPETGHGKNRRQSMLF
N-lysine methyltransferase SMYD2 (Homo sapiens), sequence (Q9NRG4 whole entry): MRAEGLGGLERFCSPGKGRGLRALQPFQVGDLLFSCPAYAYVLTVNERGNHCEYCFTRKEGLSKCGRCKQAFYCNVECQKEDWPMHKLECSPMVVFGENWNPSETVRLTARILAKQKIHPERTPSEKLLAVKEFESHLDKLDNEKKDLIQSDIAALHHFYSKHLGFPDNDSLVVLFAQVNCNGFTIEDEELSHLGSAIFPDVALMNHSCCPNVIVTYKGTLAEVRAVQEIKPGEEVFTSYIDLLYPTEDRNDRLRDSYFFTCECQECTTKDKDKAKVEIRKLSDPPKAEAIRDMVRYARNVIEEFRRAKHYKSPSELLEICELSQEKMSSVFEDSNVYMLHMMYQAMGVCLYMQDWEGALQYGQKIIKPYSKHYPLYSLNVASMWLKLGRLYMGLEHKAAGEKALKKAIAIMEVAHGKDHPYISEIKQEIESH
T2 sequence (Q9H422 whole entry, looked up): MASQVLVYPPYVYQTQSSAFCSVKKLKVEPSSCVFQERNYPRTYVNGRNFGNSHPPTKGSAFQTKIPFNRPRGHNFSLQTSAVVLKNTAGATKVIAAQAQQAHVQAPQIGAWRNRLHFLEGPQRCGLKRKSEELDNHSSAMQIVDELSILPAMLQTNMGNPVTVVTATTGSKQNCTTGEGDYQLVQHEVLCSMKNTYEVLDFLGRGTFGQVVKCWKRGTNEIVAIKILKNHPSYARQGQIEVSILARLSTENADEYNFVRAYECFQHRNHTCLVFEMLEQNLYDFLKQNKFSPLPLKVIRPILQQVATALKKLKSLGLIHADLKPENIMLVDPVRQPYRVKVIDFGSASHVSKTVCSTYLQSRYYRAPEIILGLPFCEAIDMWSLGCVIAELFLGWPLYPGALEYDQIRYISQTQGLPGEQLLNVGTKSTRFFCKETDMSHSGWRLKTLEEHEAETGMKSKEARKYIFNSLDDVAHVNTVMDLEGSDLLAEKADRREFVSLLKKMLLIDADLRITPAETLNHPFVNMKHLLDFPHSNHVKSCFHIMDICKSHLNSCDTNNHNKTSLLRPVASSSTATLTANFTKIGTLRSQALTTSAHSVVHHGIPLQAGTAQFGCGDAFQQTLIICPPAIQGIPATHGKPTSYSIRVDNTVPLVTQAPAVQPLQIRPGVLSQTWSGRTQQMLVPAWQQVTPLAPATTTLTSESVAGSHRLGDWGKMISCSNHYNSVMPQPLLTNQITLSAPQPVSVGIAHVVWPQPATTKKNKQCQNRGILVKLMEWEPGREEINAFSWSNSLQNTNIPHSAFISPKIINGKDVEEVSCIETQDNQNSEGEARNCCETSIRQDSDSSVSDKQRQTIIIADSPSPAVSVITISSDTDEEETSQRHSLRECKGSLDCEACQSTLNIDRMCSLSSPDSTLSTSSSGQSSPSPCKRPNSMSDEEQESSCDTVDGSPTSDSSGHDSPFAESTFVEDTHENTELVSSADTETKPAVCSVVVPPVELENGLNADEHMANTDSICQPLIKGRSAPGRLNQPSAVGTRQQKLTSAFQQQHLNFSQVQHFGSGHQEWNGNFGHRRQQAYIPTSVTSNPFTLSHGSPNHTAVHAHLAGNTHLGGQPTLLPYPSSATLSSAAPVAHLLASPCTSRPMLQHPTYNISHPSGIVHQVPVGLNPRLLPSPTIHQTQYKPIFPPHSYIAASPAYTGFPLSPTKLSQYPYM
Dual specificity mitogen-activated protein kinase kinase 1 (Homo sapiens), Q02750 [S218D,S222D], sequence (Q02750 whole entry S218D/S222D): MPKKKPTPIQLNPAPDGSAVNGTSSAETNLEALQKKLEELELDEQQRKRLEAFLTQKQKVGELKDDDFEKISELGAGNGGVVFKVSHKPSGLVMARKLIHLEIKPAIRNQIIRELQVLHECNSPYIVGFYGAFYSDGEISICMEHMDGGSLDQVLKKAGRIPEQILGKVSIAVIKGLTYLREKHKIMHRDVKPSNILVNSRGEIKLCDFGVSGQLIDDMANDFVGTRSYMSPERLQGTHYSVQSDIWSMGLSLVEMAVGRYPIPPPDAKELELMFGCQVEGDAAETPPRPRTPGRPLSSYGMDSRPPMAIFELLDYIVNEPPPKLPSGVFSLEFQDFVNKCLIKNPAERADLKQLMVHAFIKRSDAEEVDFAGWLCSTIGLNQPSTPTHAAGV
Dual specificity mitogen-activated protein kinase kinase 1, sequence (Q02750 whole entry): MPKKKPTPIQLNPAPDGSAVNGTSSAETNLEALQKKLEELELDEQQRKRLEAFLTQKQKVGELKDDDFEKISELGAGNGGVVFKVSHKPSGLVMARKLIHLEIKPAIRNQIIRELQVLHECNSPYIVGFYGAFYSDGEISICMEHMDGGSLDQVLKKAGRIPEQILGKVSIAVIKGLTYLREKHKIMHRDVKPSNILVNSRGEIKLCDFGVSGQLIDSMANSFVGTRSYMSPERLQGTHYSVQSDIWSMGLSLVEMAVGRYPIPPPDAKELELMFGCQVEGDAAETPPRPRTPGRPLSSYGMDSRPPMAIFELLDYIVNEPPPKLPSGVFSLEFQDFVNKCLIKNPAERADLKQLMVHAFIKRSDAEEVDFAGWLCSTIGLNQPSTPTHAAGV
Dual specificity tyrosine-phosphorylation-regulated kinase 1B, sequence (Q9Y463 whole entry, looked up): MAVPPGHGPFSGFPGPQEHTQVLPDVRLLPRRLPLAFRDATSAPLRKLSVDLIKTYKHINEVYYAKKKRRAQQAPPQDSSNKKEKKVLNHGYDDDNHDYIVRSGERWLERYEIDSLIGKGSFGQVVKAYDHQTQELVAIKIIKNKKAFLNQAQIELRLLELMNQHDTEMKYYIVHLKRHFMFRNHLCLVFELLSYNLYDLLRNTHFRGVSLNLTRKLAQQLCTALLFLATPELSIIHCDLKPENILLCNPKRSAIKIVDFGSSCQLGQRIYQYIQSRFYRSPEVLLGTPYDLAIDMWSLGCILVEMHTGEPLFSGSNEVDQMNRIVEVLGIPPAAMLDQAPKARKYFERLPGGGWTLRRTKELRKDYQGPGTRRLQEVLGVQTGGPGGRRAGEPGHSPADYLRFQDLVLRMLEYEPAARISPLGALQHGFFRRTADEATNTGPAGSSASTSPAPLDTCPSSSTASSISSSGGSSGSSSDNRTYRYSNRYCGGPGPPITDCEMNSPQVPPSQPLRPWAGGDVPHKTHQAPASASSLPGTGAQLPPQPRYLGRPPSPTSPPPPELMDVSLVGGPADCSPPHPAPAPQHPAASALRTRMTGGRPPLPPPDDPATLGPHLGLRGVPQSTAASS
Ribosomal protein S6 kinase alpha-3, sequence (P51812 whole entry): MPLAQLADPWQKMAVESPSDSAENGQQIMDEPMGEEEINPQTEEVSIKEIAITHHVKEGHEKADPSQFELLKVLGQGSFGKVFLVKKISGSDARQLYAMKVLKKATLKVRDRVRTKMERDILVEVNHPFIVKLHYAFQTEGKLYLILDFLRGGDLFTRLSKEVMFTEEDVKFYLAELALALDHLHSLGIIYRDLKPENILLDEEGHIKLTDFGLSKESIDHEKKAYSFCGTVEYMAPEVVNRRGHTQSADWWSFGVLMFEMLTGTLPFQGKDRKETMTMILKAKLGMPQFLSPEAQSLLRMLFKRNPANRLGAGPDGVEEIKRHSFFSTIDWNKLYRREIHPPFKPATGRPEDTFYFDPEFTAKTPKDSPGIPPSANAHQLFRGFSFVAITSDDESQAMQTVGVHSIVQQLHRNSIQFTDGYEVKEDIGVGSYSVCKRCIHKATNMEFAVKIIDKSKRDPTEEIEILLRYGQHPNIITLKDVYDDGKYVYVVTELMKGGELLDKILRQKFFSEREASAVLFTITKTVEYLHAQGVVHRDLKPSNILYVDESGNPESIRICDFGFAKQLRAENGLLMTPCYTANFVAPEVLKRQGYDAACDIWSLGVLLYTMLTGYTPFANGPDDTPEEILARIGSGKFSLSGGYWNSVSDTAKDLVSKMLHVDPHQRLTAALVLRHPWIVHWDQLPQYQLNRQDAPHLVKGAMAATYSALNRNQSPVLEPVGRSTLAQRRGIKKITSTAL
Serine/threonine-protein kinase PLK3, sequence (Q9H4B4 whole entry, looked up): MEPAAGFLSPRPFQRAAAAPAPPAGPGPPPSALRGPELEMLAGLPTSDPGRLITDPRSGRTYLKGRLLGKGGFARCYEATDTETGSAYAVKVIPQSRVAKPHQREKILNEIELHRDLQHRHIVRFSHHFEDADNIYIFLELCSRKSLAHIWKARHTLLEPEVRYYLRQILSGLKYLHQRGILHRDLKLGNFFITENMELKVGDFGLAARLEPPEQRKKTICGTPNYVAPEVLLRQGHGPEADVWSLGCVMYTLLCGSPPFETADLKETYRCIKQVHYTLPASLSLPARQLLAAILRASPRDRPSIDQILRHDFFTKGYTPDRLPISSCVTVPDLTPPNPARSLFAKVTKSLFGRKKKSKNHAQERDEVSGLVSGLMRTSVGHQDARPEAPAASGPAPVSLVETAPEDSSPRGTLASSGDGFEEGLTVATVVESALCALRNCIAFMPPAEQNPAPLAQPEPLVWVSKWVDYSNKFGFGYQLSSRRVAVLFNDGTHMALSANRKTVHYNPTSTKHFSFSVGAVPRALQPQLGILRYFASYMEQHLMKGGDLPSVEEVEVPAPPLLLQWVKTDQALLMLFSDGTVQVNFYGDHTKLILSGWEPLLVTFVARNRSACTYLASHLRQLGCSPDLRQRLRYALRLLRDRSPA

Cc1cnc(Nc2ccc(F)cc2Cl)nc1-c1c[nH]c(C(=O)N[C@H](CO)c2cccc(Cl)c2)c1
% of inhibition [1]: 17% | % of inhibition [2]: 3%

CC[C@@H]1[C@H](F)C(=O)N[C@@H]1COc1nccc2cc(C(N)=O)c(OC)cc12 [ZIMLOVISERTIB]
% of inhibition ([3]; at 0.01 µM): -4.8% | % of inhibition ([3]; at 0.04 µM): -2.9% | % of inhibition ([3]; at 0.2 µM): 2.8% | % of inhibition ([3]; at 1 µM): 6% | % of inhibition ([3]; at 5 µM): 5.6% | % of inhibition [4]: -18.2%

Cc1cc(CN)cc(C)c1-c1ncn(C)c1-c1cncn1C
dTM [5]: -1.06 K

CN1Cc2nccc(-c3cn(C)nc3-c3ccc(F)cc3)c2C1=O
% of inhibition [6]: 4%

Cn1cc(-n2cnc3c(NCc4nc5cc(Cl)c(Cl)cc5[nH]4)nc(N4CCOCC4)nc32)cn1
% of inhibition [7]: -15.4% | % of inhibition [8]: -20.2% | % of inhibition [9]: -24.9%

Cc1cc(F)c(C(=O)Nc2cccc(-c3nncn3C(C)C)n2)cc1-n1cnc(C2CC2)c1
% of control [10]: 100%

COCC(=O)NC/C=C/c1ccc2ncnc(Nc3ccc(Oc4ccc(C)nc4)c(C)c3)c2c1 [CP-724714]
% of control [11]: 100% | % of control [12]: 100%

Nc1cnc(N2CCc3cc(S(=O)(=O)Nc4c(F)cc(Cl)cc4F)cc(N4CCCC4=O)c32)nc1 [TP-020n]
% of control [13]: 100% | % of inhibition [14]: -2.82%

Cc1ccc(-c2ccc3c(ccc4sc5c(c43)NC[C@@H](C)NC5=O)n2)cn1
% of inhibition [15]: 34%

CN(C)CCOc1ccc(-c2nc(-c3ccncc3)c(-c3ccc4c(c3)CC/C4=N\O)[nH]2)cc1
% of control [16]: 100%

O[C@H]1CC[C@H](Nc2ncc3nc(Nc4c(F)cc(F)cc4F)n([C@H]4CCOC4)c3n2)CC1
% of control [17]: 95% | % of control [18]: 100%

CNC(=O)Nc1ccc(-c2nc(N3CC4CCC(C3)O4)c3cnn(C4CCC5(CC4)OCCO5)c3n2)cc1
% of inhibition [19]: 2% | % of inhibition [20]: 5%

COCCN1CCC(c2cc(CN(C)C(=O)c3cccc(Oc4ccccc4)c3)ccn2)CC1
% activity ([21]; at 1 µM): > 95% | % activity ([21]; at 10 µM): > 90%

O=C(NOC[C@H](O)CO)c1ccc(F)c(F)c1Nc1ccc(I)cc1F
% of control [22]: 49%
